Molecules are shown by their SMILES. Several values for one entry are separate records, joined by “and”; a condition that tells them apart may be missing. Equal values may be shown once.

Holding throughout (format): cell-based, human
One assay relates to H9-derived BMECs. The assay is described as follows: TEER of RA-treated H9-derived BMECs. The protocol: IMR90-4 and DF19-9-11T hiPSCs and H9 hESCs were maintained between passages 26-42 on […] (BD Biosciences) in mTeSR1™ medium ([…] Technologies) or on irradiated mouse embryonic fibroblasts (MEFs) in standard unconditioned medium (Dulbecco's Modified Eagle's Medium [DMEM]/Ham's F12 containing 20% Knockout Serum Replacer (Invitrogen), 1×MEM nonessential amino acids (Invitrogen), 1 mM L-glutamine (Sigma), 0.1 mM β-mercaptoethanol (Sigma), and human basic fibroblast growth factor (bFGF; 100 ng/mL for hiPSCs and 4 ng/mL for hESCs; Waisman Clinical Biomanufacturing Facility, University of Wisconsin-Madison)). Prior to differentiation, cells were passaged onto Matrigel (BD Biosciences) in mTeSR1 medium ([…] Technologies). After 2-3 days in mTeSR1, medium was switched to unconditioned medium (UM) lacking bFGF for 6 days. Human endothelial serum-free medium (hESFM; Invitrogen) supplemented with 20 ng/mL bFGF (R&D Systems) and 1% platelet-poor plasma derived bovine serum (Biomedical Technologies, Inc.) was then added for an additional 2-4 days.
All-trans RA (Sigma) was included at concentrations of 1-10 μM depending on the experiment. Equivalent DMSO was used as a vehicle control in some experiments. Cells were then dissociated with Versene (Invitrogen) and plated onto 12-well tissue culture polystyrene plates or 1.12 cm^2 Transwell-Clear® permeable inserts (0.4 μm pore size) coated with a mixture of collagen IV (400 μg/mL; Sigma) and fibronectin (100 μg/mL; Sigma). Culture plates were incubated with the coating for at least 30 min at 37° C., while the inserts were incubated for a minimum of 4 h at 37° C. hPSC-derived BMECs were then cultured in EC medium overnight (with or without RA). […] Also, our previous study used hPSCs exclusively maintained on MEFs.
FIG. 5 dictates the timing of co-culture experiments. During the subculture phase, hPSC-derived BMECs were monocultured or co-cultured with pericytes or fibroblasts in EC medium (with or without RA). After the 24 h subculture phase, hPSC-derived BMECs were maintained as a monoculture or co-cultured with differentiated hNPCs, pericytes, or fibroblasts. Depending on the experiment, co-culture was conducted in NPC differentiation medium containing 10% FBS (as opposed to the 1% FBS used during NPC differentiation) or hESFM containing 1% PDS but not bFGF (modified EC medium). Trans-endothelial electrical resistance (TEER) was measured immediately prior to co-culture using an EVOM voltohmmeter (World Precision Instruments, Sarasota, Fla., USA) and approximately every 24 h thereafter as necessary.

The test system of assay [1] is differentiating IMR90-4 hiPSCs. Briefly: Adherens junction and tight junction protein expression (immunocytochemistry, flow cytometry, western blot). As for the experimental part: Cells were washed twice with phosphate-buffered saline (PBS; Sigma) and fixed with either 100% ice-cold methanol for 10 min or 4% paraformaldehyde for 15 min. Cells were then washed twice with PBS and blocked in PBS containing 40% goat serum (40% PBSG; Sigma) at 20° C. for 30 min. In some instances, 0.1% Triton X-100 (TX-100) was included during this step to permeabilize the cells. Cells were then washed once with PBS and incubated with primary antibodies against occludin (1:100; Invitrogen), claudin-5 (1:100; Invitrogen), VE-cadherin (1:25; Santa Cruz Biotechnology), von Willebrand Factor (vWF; 1:100; Dako), p-glycoprotein (clone F4; 1:25; Lab Vision), breast cancer resistance protein (BCRP, clone 5D3; 1:25; Millipore), multidrug resistance protein 1 (MRP1, clone QCRL-1; 1:100; Millipore), in 40% PBSG at 4° C. overnight. Cells were washed three times with PBS and incubated with secondary antibodies (goat anti-rabbit Texas Red and goat anti-mouse Alexa Fluor 488; 1:500; Invitrogen) for 1 h at 20° C. […] For quantitative analysis of BMEC integrity, the percentage of cells expressing frayed tight junctions was counted using BMECs immunolabeled for occludin. […] A minimum of four separate frames and 1000 total cells were counted to obtain a percentage of frayed tight junctions.
Cells were washed once with PBS and dissociated with ACCUTASE for 5 min, then spun down and fixed in 2% paraformaldehyde for 15 min or 100% methanol for 10 min at 20° C. […] After another two washes with PBS containing 5% FBS, cells were analyzed on a FACSCALIBER flow cytometer and the IgG control was used to quantify positive labeling. Elevated GLUT-1 expression was quantified using a GLUT-1/forward scatter plot referenced to baseline GLUT-1 expression measured at day 4 of UM culture.
Cells were washed once with PBS and lysed with RIPA buffer (Pierce, Rockford, Ill., USA). Protein concentration was quantified via BCA assay (Pierce) and proteins were then resolved by SDS-PAGE on 4-20% Tris-Glycine gradient gels (Invitrogen). […] Protein levels were detected via a SUPERSIGNAL West Pico Chemiluminescent Substrate (Pierce).
(In flow cytometry, cells or beads pass a laser one at a time.)

In the next assay the test system is IMR90-4-derived BMECs. The assay is described as follows: Analysis of tight junction fidelity (frayed tight junctions, occludin immunolabel). The protocol:
Cells were washed twice with phosphate-buffered saline (PBS; Sigma) and fixed with either 100% ice-cold methanol for 10 min or 4% paraformaldehyde for 15 min. Cells were then washed twice with PBS and blocked in PBS containing 40% goat serum (40% PBSG; Sigma) at 20° C. for 30 min. In some instances, 0.1% Triton X-100 (TX-100) was included during this step to permeabilize the cells. Cells were then washed once with PBS and incubated with primary antibodies against occludin (1:100; Invitrogen), claudin-5 (1:100; Invitrogen), VE-cadherin (1:25; Santa Cruz Biotechnology), von Willebrand Factor (vWF; 1:100; Dako), p-glycoprotein (clone F4; 1:25; Lab Vision), breast cancer resistance protein (BCRP, clone 5D3; 1:25; Millipore), multidrug resistance protein 1 (MRP1, clone QCRL-1; 1:100; Millipore), in 40% PBSG at 4° C. overnight. Cells were washed three times with PBS and incubated with secondary antibodies (goat anti-rabbit Texas Red and goat anti-mouse Alexa Fluor 488; 1:500; Invitrogen) for 1 h at 20° C. Cell nuclei were counterstained with 300 nM 4′,6-Diamidino-2-pheny-lindoldihydrochloride (DAPI) for 10 min. […] For quantitative analysis of BMEC integrity, the percentage of cells expressing frayed tight junctions was counted using BMECs immunolabeled for occludin. […] A minimum of four separate frames and 1000 total cells were counted to obtain a percentage of frayed tight junctions.

For `CC1=C(/C=C/C(C)=C/C=C/C(C)=C/C(=O)O)C(C)(C)CCC1` [RA, retinoic acid], the TEER with H9-derived BMECs (optimized RA schedule (6D UM, 1D EC, 3D EC+RA), after purification (FIG. 9c)) is given as 1039±142 Ω×cm^2. For the same compound, the “Maximum TEER” value is 1675±95 Ω × cm^2 and 1675 ± 95 (2) Ω × cm^2 in the assay on H9-derived BMECs (subculture: pericytes, co-culture phase: differentiated NPCs (9 days), 1% PDS); 1028 ± 153 Ω × cm^2 with H9-derived BMECs (t = 24 h, triplicate filters). For the same compound, the “Average TEER” value in the assay on H9-derived BMECs (t = 24 h, optimized RA schedule, between biological replicates) was 646±308 Ω × cm^2. Besides, in assay [1] (RA during 2 days of EC medium treatment), the “decrease of the level of claudin-5 expression” value is reported as 1.7 fold. Moreover, the “increase of the level of occludin expression” value in assay [1] (RA during 2 days of EC medium treatment, across biological replicates) fell in the range of 1.8 to 2.9 fold. The “positive expression for VE-cadherin, claudin-5, and occludin” value in assay [1] (purified RA-treated BMECs) is reported as 95-98%. The entries for the “cells with frayed tight junctions” value in the assay with IMR90-4-derived BMECs (BMECs only treated with RA) and in the assay on IMR90-4-derived BMECs (RA-treated BMECs with sequential pericyte/hNPC co-culture in modified EC medium) were 1.5±0.9% and 1.4±0.6%, respectively.

(Values after US10590393B2, “Retinoic acid enhanced human stem cell derived blood brain barrier model” (Wisconsin Alumni Research Foundation, priority 2012, dated 2020).)
